Source: ChEMBL document CHEMBL1157539, “Thousands of chemical starting points for antimalarial lead identification” (Nature, 2010)

tested on: Plasmodium falciparum; test: GSK_TCMDC: Inhibition of Plasmodium falciparum 3D7 in whole erythrocytes, using parasite LDH activity as an index of growth.; type: functional, organism-based; settings: Plasmodium falciparum, 3D7

First: CCN(CC)C(C)(C)CN(Cc1ccc(-c2ccc(C(F)(F)F)cc2)cc1)C(=O)Cn1c(CCc2cccc(F)c2F)nc(=O)c2ccccc21
Second: O=C(Nc1ccccc1)Nc1cccc(-c2ccc(-c3nc4cc(C(F)(F)F)ccc4[nH]3)cc2)c1
The XC50 of the first is 4.1-fold higher: 958 nM for the first, 231 nM for the second.

Going from COc1ccc(C2N=C(N)N=C(N)N2OCc2ccccc2)cc1OC (centres undefined) to CC1(C)N=C(N)N=C(N)N1OCCCOc1cccc(C(=O)O)c1, the XC50 falls from 133 nM to 39.9 nM (3.3-fold).

Going from O=C(Nc1ccc2c(c1)CCC2)c1cnc(N2CCN(c3ccncc3)CC2)c(Cl)c1 to CCOc1cc(C)ccc1N1CCN(CCCCNC(=O)c2ccc(NC(=O)c3ccc(Cl)cc3)cc2)CC1, the XC50 falls from 1110 nM to 637 nM (1.7-fold).

Going from NCC1CCCN1Cc1cccc(-c2ccc(-c3nc4cc(C(F)(F)F)ccc4[nH]3)cc2)c1 (centres undefined) to COc1ccc(CNCc2ccc(-c3cccc(-c4nc5cc(F)ccc5[nH]4)c3)cc2)cc1, the XC50 falls from 778 nM to 202 nM (3.9-fold).

First: CC1(C)CCC(C)(C)c2c1ccc(C1CCN(CCCCNC(=O)c3ccc(-c4ccc(C#N)cc4)cc3)CC1)c2OCC(N)=O
Second: N#Cc1ccc(-c2ccc(C(=O)NCCCCN3CCC(c4cc(Br)c5c(c4OCC(N)=O)CCCC5)CC3)cc2)cc1
The XC50 of the first is 1.9-fold lower: 421 nM for the first, 797 nM for the second.

CN1CCN(CCCN(Cc2csc(-c3ccc(CNCc4ccccc4)cc3)n2)C(=O)c2cc(F)cc(F)c2)CC1 and O=S(=O)(NCCN1CCCC1)c1ccc(-c2cccc(CNCc3ccc(F)cc3)c2)s1 are within 1.5-fold of each other in XC50: 708 nM for the first, 764 nM for the second.

COC(=O)c1ccc2nc(-c3ccc(/C=C/C(=O)NCc4ccc(Cl)c(Cl)c4)cc3)[nH]c2c1 and Cc1cc2nc(-c3ccc(OCC(=O)NCc4ccc(C(C)(C)C)cc4)cc3)[nH]c2cc1C are within 1.5-fold of each other in XC50: 1340 nM for the first, 1060 nM for the second.

Compared with Cc1cc(N2Cc3ccccc3C2)nc(Nc2cccc(C#N)c2)n1, Cc1cc(Nc2ccncc2)n2nc(C)c(-c3ccccc3Cl)c2n1 is 3.8-fold higher in XC50: 172 nM for the first, 654 nM for the second.

CCCNCc1c(O)ccc2c(CNCCC)c(O)ccc12 and CCCCNC(=O)C(C)NC(=O)c1ccc(O)c(-c2ccc(Cl)c(Cl)c2)c1 (centres undefined) are within 1.5-fold of each other in XC50: 597 nM for the first, 823 nM for the second.

COc1ccc(NC(=O)[C@H](Cc2ccccc2)Nc2cc(C)nc(Nc3ccccc3)n2)cc1 and Cc1cc(N[C@@H](Cc2ccccc2)C(=O)NCc2cccc(F)c2)nc(NCC2CCCCC2)n1 are within 1.5-fold of each other in XC50: 1010 nM for the first, 855 nM for the second.

CCc1ccc(CN2CCCCC(NC(=O)c3cc(-c4ccccc4F)cs3)C2)cc1 (centres undefined) and O=C(NC1CCN(Cc2ccccc2)CC1)c1csc2nc(-c3ccc(Cl)cc3)cn12 are within 1.5-fold of each other in XC50: 1160 nM for the first, 911 nM for the second.

Compared with CN(CCNCc1ccc(-c2cccc(-c3nc4ccccc4[nH]3)c2)cc1)S(C)(=O)=O, N#Cc1cccc(NC(=O)Nc2ccc(-c3csc(-c4nc5ccccc5[nH]4)c3)cc2)c1 is 6.2-fold lower in XC50: 945 nM for the first, 152 nM for the second.

COc1ccc2ncc(C#N)c(CCN3CCC(NCc4ccc5c(c4)NC(=O)CO5)CC3)c2c1 and COc1ccc2nccc([C@@H](O)CN3CCC(NCc4ccc5c(c4)N(C)C(=O)CO5)CC3)c2c1 are within 1.5-fold of each other in XC50: 588 nM for the first, 745 nM for the second.

Oc1cccc(Nc2ccnc3cc(-c4ccncc4)ccc23)c1 and CN1CCN(Cc2cccc(-c3cc4nccc(Nc5ccc(Oc6ccccc6)cc5)c4cc3Cl)c2)CC1 are within 1.5-fold of each other in XC50: 1050 nM for the first, 728 nM for the second.

O=C(/C=C/c1ccccc1O)NCCCCCN1CCC(c2c[nH]c3ccccc23)CC1 and O=C(/C=C/c1cc(C(F)(F)F)ccc1F)N1CCC(CN2CCC(c3c[nH]c4ccccc34)CC2)CC1 are within 1.5-fold of each other in XC50: 827 nM for the first, 994 nM for the second.

First: C[C@@H](CNc1ccnc(Nc2ccc3[nH]c(=O)[nH]c3c2)n1)c1ccccc1
Second: Cc1cccc(Nc2nccc(NCC(O)c3cccc(C(F)(F)F)c3)n2)c1 (centres undefined)
The XC50 of the first is 2.1-fold higher: 1100 nM for the first, 514 nM for the second.

O=C(Cn1nc(Br)nc1[N+](=O)[O-])NCC1CCCCC1 and CC(C)(CNC(=O)C1CCN(CC2CCCCC2)CC1)c1nc(-c2ccc(Cl)c(O)c2)c(-c2ccncc2)[nH]1 are within 1.5-fold of each other in XC50: 1100 nM for the first, 888 nM for the second.

First: O=C(/C=C/c1ccc(C(F)(F)F)cc1)NCCCCCN1CCCN(C(=O)Nc2ccc(Cl)c(C(F)(F)F)c2)CC1
Second: O=C(/C=C/c1ccc(C(F)(F)F)cc1)NCCCCCN1CCCN(C(=O)Nc2cccc(Cl)c2)CC1
The XC50 of the first is 4.9-fold lower: 202 nM for the first, 992 nM for the second.

CC[C@H](NC(=O)c1c(CCCN2CCN(c3ccccc3)CC2)c(-c2ccccc2)nc2cc(O)ccc12)c1ccccc1 and OC(COc1ccccc1-c1nc2ccccc2o1)CN1CCCN(CCc2ccccc2)CC1 (centres undefined) are within 1.5-fold of each other in XC50: 780 nM for the first, 758 nM for the second.

Going from CN(C)CCCOc1c(C(C)(C)C)cc(-c2cc(C(C)(C)C)c(OCCCN(C)C)c(C(C)(C)C)c2)cc1C(C)(C)C to FC(F)(F)COc1ccc2ccccc2c1CCNCCCCNCCc1c(OCC(F)(F)F)ccc2ccccc12, the XC50 rises from 270 nM to 426 nM (1.6-fold).

Compared with COc1cc(NC(=O)/C=C/c2cc(F)cc(F)c2F)cc(OCCN2CCC3(CC2)OCCO3)c1, O=C(Nc1ccc2c(ccn2C2CCCN(Cc3cc(F)cc(F)c3F)CC2)c1)c1ccco1 (centres undefined) is 2.4-fold higher in XC50: 269 nM for the first, 651 nM for the second.

Cc1ccccc1C1CCN(C2CCC(NC(=O)c3cc(-c4ccccc4)oc3C)CC2)CC1 (centres undefined) and Cc1ccc(/C=C/C(=O)NC2CCC(N3CCC(c4ccccc4C)CC3)CC2)cc1C (centres undefined) are within 1.5-fold of each other in XC50: 1030 nM for the first, 809 nM for the second.

Compared with COc1ccc2nc3cc(Cl)ccc3c(NCCCCN3CCNCC3)c2c1, COc1ccc(NC(=O)NC2CCN(c3ccnc4cc(Cl)ccc34)CC2)cc1 is 4-fold higher in XC50: 183 nM for the first, 731 nM for the second.

CC(C)(C)c1ccc(NC(=O)c2ccc(CN3CCCN(CC4CCCCC4)CC3)cc2)cc1 and O=C(Nc1cccc(OC2CCN(Cc3ccsc3)CC2)c1)c1ccc(C(F)(F)F)cc1 are within 1.5-fold of each other in XC50: 542 nM for the first, 765 nM for the second.

O=C(Cc1c[nH]cn1)Nc1ccc(-c2ccc(-c3nc4cc(F)ccc4[nH]3)cc2)cc1 and CNC(=O)Cc1ccc(C(=O)Nc2cccc(-c3ccc(-c4nc5cccc(C)c5[nH]4)s3)c2)cc1 are within 1.5-fold of each other in XC50: 731 nM for the first, 632 nM for the second.

Nc1nc2c(ncn2OC[C@H]2COP(=O)(O)CO2)c(=O)[nH]1 and COc1ccc2nccc(N3CCC(SCCNCc4ccc5c(n4)NC(=O)CO5)C3)c2n1 (centres undefined) are within 1.5-fold of each other in XC50: 569 nM for the first, 801 nM for the second.

First: COc1ccc2c(c1)CC(CNC[C@H](O)c1cccc(Cl)c1)CC2 (some centres undefined)
Second: Clc1cc(Br)ccc1-c1ccc(CNCC2CCNCC2)o1
The XC50 of the first is 1.5-fold lower: 988 nM for the first, 1510 nM for the second.

O=C(Nc1ccc(Cn2ncc(N3CCCNCC3)c(Cl)c2=O)cc1)Nc1cccc(Oc2ccccc2)c1 and Cc1ccc(Cn2ncc(N3CCC(N)CC3)c(Cl)c2=O)cc1NC(=O)Nc1ccc(-c2ccccc2)cc1 are within 1.5-fold of each other in XC50: 987 nM for the first, 917 nM for the second.

Compared with Cn1nc(-c2ccc(NC(=O)Nc3cc(C(F)(F)F)ccc3F)c(F)c2)c2cnc(NCCCn3ccnc3)nc21, Cc1cc(F)ccc1-c1nc(NCCCNCCc2ccccc2)nc2c1ccc(=O)n2-c1c(F)cccc1F is 4-fold lower in XC50: 736 nM for the first, 186 nM for the second.

Going from CCC[C@@H]([C@@H](CC(C)C)C(=O)N[C@@H](CCCNc1nccc(C(F)(F)F)n1)C(=O)Nc1nccs1)N(O)C=O to CCCCCNc1nc2nc(N)nc(N)c2nc1-c1ccccc1, the XC50 rises from 373 nM to 954 nM (2.6-fold).

Cc1ccc2nc3c(cc(C(=O)NCCc4ccccc4)c(=N)n3CCCOC(C)C)c(=O)n2c1 and CCOc1c(N2CCN(CCCCNC(=O)c3ccc(NC(=O)c4ccc(Cl)cc4)cc3)CC2)ccc2ccccc12 are within 1.5-fold of each other in XC50: 892 nM for the first, 684 nM for the second.

COc1cc2nc(N3CCC(CNC(=O)c4ccc(-c5ccc(C(=O)N(C)C)cc5C)cc4)CC3)nc(N3CCN(C)CC3)c2cc1OC and COc1c(C2CCN(CCCCNC(=O)c3ccc(C)c(-c4ccc(C(F)(F)F)cc4)c3)CC2)ccc2c1CCCC2 are within 1.5-fold of each other in XC50: 1230 nM for the first, 883 nM for the second.

Compared with COc1ccccc1-n1c(-c2ccc3ccccc3c2)csc1=NC(=O)c1ccccc1, O=C(Nc1nc(-c2ccccn2)cs1)c1ccccc1COc1ccccc1 is 4.8-fold higher in XC50: 204 nM for the first, 972 nM for the second.

Compared with CCCNC(=O)CN1CN(c2ccccc2)C2(CCN(C(=O)c3ccc(C(C)(C)C)cc3)CC2)C1=O, CCNc1cc(C(=O)N[C@@H](Cc2ccccc2)[C@H](O)CNC2(CC(C)C)CC2)cc(N2CCCCS2(=O)=O)c1 is 2.2-fold higher in XC50: 466 nM for the first, 1020 nM for the second.

CCCCCCN1CCC(NCc2cccc([N+](=O)[O-])c2)CC1 and CCc1ccc(C2CCN(CCCCNC(=O)c3ccc(-c4ccc(C#N)cc4)cc3)CC2)c(OCCO)c1 are within 1.5-fold of each other in XC50: 668 nM for the first, 938 nM for the second.

Cc1cc2ncn(-c3nccc(NCc4cccnc4)n3)c2cc1C and COc1ccc(CCNCc2ccc3nc(N)c(C)cc3c2)cc1 are within 1.5-fold of each other in XC50: 664 nM for the first, 992 nM for the second.

First: CC(=O)Nc1ccc(Nc2ncc([N+](=O)[O-])c(Nc3ccccc3C(N)=O)n2)cc1
Second: COc1ccc(C2CCN(CCCCNC(=O)c3ccc(NC(=O)c4ccc(Cl)cc4)cc3)CC2)cc1Cl
The XC50 of the first is 2.3-fold lower: 366 nM for the first, 843 nM for the second.

Going from Cc1c(C)c2c(c(C)c1O)CC[C@](C)(C(=O)N1CCC(CN3CCC(c4c[nH]c5ccccc45)CC3)CC1)O2 to O=C(Cc1cc(=O)oc2cc(O)ccc12)NC1CCC(CN2CCC(c3c[nH]c4ccccc34)CC2)CC1 (centres undefined), the XC50 rises from 718 nM to 1130 nM (1.6-fold).

Cc1cccc2nc(-c3ccc(-c4ccc(CNCc5cnn(-c6ccccc6)n5)cc4)s3)[nH]c12 and c1cc(CNCc2ccc3c(c2)OCO3)cc(-c2cccc(CNc3ccc4ncccc4c3)c2)c1 are within 1.5-fold of each other in XC50: 718 nM for the first, 760 nM for the second.

Compared with CCCC1(NC[C@@H](O)[C@H](Cc2ccccc2)NC(=O)c2cc(NCC)cc(N3CCCCS3(=O)=O)c2)CCCCC1, O=S(=O)(Nc1cccc(CCN2CCC(N3CCCCC3)CC2)c1)c1ccc(Oc2ccccc2)cc1 is 3.1-fold higher in XC50: 247 nM for the first, 769 nM for the second.

Oc1ccc(Cl)cc1CN1CCC2(CCCN(CC3CCC3)C2)C1 (centres undefined) and Cc1cccc2nc(C3CCN(CC4CCN(C(=O)/C=C/c5ccc(Cl)c(Cl)c5)CC4)CC3)[nH]c12 are within 1.5-fold of each other in XC50: 368 nM for the first, 485 nM for the second.

CCOC(=O)C1=C(C)NC2=C(C(=O)CCC2)C1c1cn(Cc2ccc(Cl)cc2Cl)nc1-c1ccccc1 (centres undefined) and Cc1cccc(-n2nc(C)c3c2NC(=O)CC3C(=O)c2ccc(Cl)s2)c1 (centres undefined) are within 1.5-fold of each other in XC50: 625 nM for the first, 466 nM for the second.

Going from COc1ccc(C(=O)C2CC2CN2CC=C(c3c(C)[nH]c4ccccc34)CC2)cc1 (centres undefined) to Cc1cc(=NN=Cc2ccccc2Cl)c2ccccc2[nH]1, the XC50 rises from 304 nM to 904 nM (3-fold).

Compared with CCN(CCCN1CCCCC1)c1cc(C)nc(Nc2ccc(C)cc2)n1, CCN(CCNS(C)(=O)=O)c1ccc(N)c(C)c1 is 2.1-fold higher in XC50: 411 nM for the first, 875 nM for the second.

N#Cc1ccnc(-c2ccc(CNC3CCN(CC4Cn5c(=O)ccc6ccc(F)c4c65)CC3)cc2)c1 (centres undefined) and O=C(Nc1cccc(-c2ccc(CN3CCNCC3)cc2)c1)c1cccc(Cl)c1 are within 1.5-fold of each other in XC50: 1220 nM for the first, 1250 nM for the second.

Going from O=C(NCCCCN1CCN(c2nsc3ccccc23)CC1)c1ccccc1C(=O)NCCCCN1CCN(c2nsc3ccccc23)CC1 to O=C(Nc1ccccc1)N(Cc1ccccc1-c1cccc(CNCc2ccc3c(c2)OCO3)c1)C1CCN(Cc2ccccc2)CC1, the XC50 falls from 887 nM to 108 nM (8.2-fold).

Compared with Nc1nc(N)c2c(ccc3c2ccn3Cc2ccccn2)n1, Cc1nc2nc(N)nc(N)c2c(C)c1Cc1cccs1 is 94-fold higher in XC50: 8.31 nM for the first, 777 nM for the second.
